Data from PubChem BioAssay (NCI).
Values joined by “and” are separate entries in the source; they are usually repeats but may differ in a detail not shown here. Identical values can stand only once.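 Compound exposure: 48 hours, 5 concentrations, 96-well plates. GI50: concentration for 50% inhibition of growth. At the TGI there is no net growth.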

Tested on: HS 578T breast
Assay: inhibition of tumour cell growth, NCI panel, 48 h

Structure (SMILES) | TGI | GI50
Cc1ccc(NC(=O)c2ccc(OP(=O)(O)Nc3ccc(C)cc3)cc2)cc1 | > 100 µM | 
Cc1ccnc(NS(=O)(=O)c2ccc(N=[N+]=[N-])cc2)n1 | > 100 µM | 
Cc1ccccc1C(=N)c1ccccc1Cc1cccc2ccccc12 | 26.3 µM | 
CCOP(=O)(OCC)C(F)(F)c1ccc(CC(NC(=O)OC(C)(C)C)C(=O)O)cc1 (centres undefined) | > 10 µM | 
COc1ccc(-c2[nH]c3c4c(nc5c(c24)C(=O)CC(C)(C)C5)CC(C)(C)C3)cc1 | > 100 µM | 
O=C(C1OC1c1ccc(Br)cc1O)C12CC3CC(CC(C3)C1)C2 (centres undefined) | 47.8 µM | 
Cc1ccccc1OC(C)C(=O)NN1C(=O)CSC1c1ccccc1 (centres undefined) | > 100 µM | 
Cc1ccc(N(Cc2ccccc2)Cc2ccccc2)cc1 | > 100 µM | 
CC(C)=CCC[C@@H](C)c1c(O)c(O)c(C)c2nccnc12 | > 80.2 µM | 
O=c1[nH]c(=S)[nH]c2c1C(c1ccc([N+](=O)[O-])cc1)c1c([nH]c(=S)[nH]c1=O)O2 | > 100 µM | 
Cn1c(=O)c2c(nc3n2CC(C(=O)O)N3)n(C)c1=O (centres undefined) | > 100 µM | 
Cc1ccc(-c2cc(-c3ccco3)c(C#N)c(=S)n2C2OC(CO)C(O)C(O)C2O)cc1 (centres undefined) | > 100 µM | 14.8 µM and 33.2 µM
NC(N)=Nc1ccc(CC(N)NCC(=O)O)cc1 (centres undefined) | > 25 µM | 
COC(=O)C1=C(C(=O)OC)SC(=C2SCSC3=C2SC(C(=O)OC)=C(C(=O)OC)C32SC3=C(CCCC3)S2)S1 | > 100 µM | 
COc1nncc2[nH]c(-c3ccccc3)cc12 | > 100 µM | 
CCOC(=O)N1CCN(Cc2cc(=O)n3ccc(C)cc3n2)CC1 | > 100 µM | 
N#CC(NCc1cccc(CNC(C#N)c2ccccc2)c1)c1ccccc1 (centres undefined) | > 100 µM | 

Tested on: OVCAR-8 ovarian
Assay: inhibition of tumour cell growth, NCI panel, 48 h

Structure (SMILES) | TGI | GI50
Cc1ccc(NC(=O)c2ccc(OP(=O)(O)Nc3ccc(C)cc3)cc2)cc1 | > 100 µM | 
Cc1ccnc(NS(=O)(=O)c2ccc(N=[N+]=[N-])cc2)n1 | > 100 µM | 
Cc1ccccc1C(=N)c1ccccc1Cc1cccc2ccccc12 | > 100 µM | 
CCOP(=O)(OCC)C(F)(F)c1ccc(CC(NC(=O)OC(C)(C)C)C(=O)O)cc1 (centres undefined) | > 10 µM | 
COc1ccc(-c2[nH]c3c4c(nc5c(c24)C(=O)CC(C)(C)C5)CC(C)(C)C3)cc1 | > 100 µM | 
O=C(C1OC1c1ccc(Br)cc1O)C12CC3CC(CC(C3)C1)C2 (centres undefined) | > 100 µM | 
Cc1ccccc1OC(C)C(=O)NN1C(=O)CSC1c1ccccc1 (centres undefined) | > 100 µM | 
Cc1ccc(N(Cc2ccccc2)Cc2ccccc2)cc1 | > 100 µM | 
CC(C)=CCC[C@@H](C)c1c(O)c(O)c(C)c2nccnc12 | > 48.6 µM | 
O=c1[nH]c(=S)[nH]c2c1C(c1ccc([N+](=O)[O-])cc1)c1c([nH]c(=S)[nH]c1=O)O2 | > 100 µM | 
Cn1c(=O)c2c(nc3n2CC(C(=O)O)N3)n(C)c1=O (centres undefined) | > 100 µM | 
Cc1ccc(-c2cc(-c3ccco3)c(C#N)c(=S)n2C2OC(CO)C(O)C(O)C2O)cc1 (centres undefined) | 22.6 µM and > 100 µM | 4.73 µM and 30.8 µM
NC(N)=Nc1ccc(CC(N)NCC(=O)O)cc1 (centres undefined) | > 25 µM | 
COC(=O)C1=C(C(=O)OC)SC(=C2SCSC3=C2SC(C(=O)OC)=C(C(=O)OC)C32SC3=C(CCCC3)S2)S1 | > 100 µM | 
COc1nncc2[nH]c(-c3ccccc3)cc12 | > 100 µM | 
CCOC(=O)N1CCN(Cc2cc(=O)n3ccc(C)cc3n2)CC1 | > 100 µM | 
N#CC(NCc1cccc(CNC(C#N)c2ccccc2)c1)c1ccccc1 (centres undefined) | > 100 µM | 

Tested on: A549 NSCLC
Assay: inhibition of tumour cell growth, NCI panel, 48 h

Structure (SMILES) | TGI | GI50
Cc1ccc(NC(=O)c2ccc(OP(=O)(O)Nc3ccc(C)cc3)cc2)cc1 | > 100 µM | 
Cc1ccnc(NS(=O)(=O)c2ccc(N=[N+]=[N-])cc2)n1 | > 100 µM | 
Cc1ccccc1C(=N)c1ccccc1Cc1cccc2ccccc12 | > 100 µM | 
CCOP(=O)(OCC)C(F)(F)c1ccc(CC(NC(=O)OC(C)(C)C)C(=O)O)cc1 (centres undefined) | > 10 µM | 
COc1ccc(-c2[nH]c3c4c(nc5c(c24)C(=O)CC(C)(C)C5)CC(C)(C)C3)cc1 | > 100 µM | 
O=C(C1OC1c1ccc(Br)cc1O)C12CC3CC(CC(C3)C1)C2 (centres undefined) | > 100 µM | 
Cc1ccccc1OC(C)C(=O)NN1C(=O)CSC1c1ccccc1 (centres undefined) | > 100 µM | 
Cc1ccc(N(Cc2ccccc2)Cc2ccccc2)cc1 | > 100 µM | 
CC(C)=CCC[C@@H](C)c1c(O)c(O)c(C)c2nccnc12 | > 100 µM | 
O=c1[nH]c(=S)[nH]c2c1C(c1ccc([N+](=O)[O-])cc1)c1c([nH]c(=S)[nH]c1=O)O2 | > 100 µM | 
Cn1c(=O)c2c(nc3n2CC(C(=O)O)N3)n(C)c1=O (centres undefined) | > 100 µM | 
Cc1ccc(-c2cc(-c3ccco3)c(C#N)c(=S)n2C2OC(CO)C(O)C(O)C2O)cc1 (centres undefined) | 65.8 µM and > 100 µM | 21.5 µM and 50.7 µM
NC(N)=Nc1ccc(CC(N)NCC(=O)O)cc1 (centres undefined) | > 25 µM | 
COC(=O)C1=C(C(=O)OC)SC(=C2SCSC3=C2SC(C(=O)OC)=C(C(=O)OC)C32SC3=C(CCCC3)S2)S1 | > 100 µM | 
COc1nncc2[nH]c(-c3ccccc3)cc12 | > 100 µM | 
CCOC(=O)N1CCN(Cc2cc(=O)n3ccc(C)cc3n2)CC1 | > 100 µM | 
N#CC(NCc1cccc(CNC(C#N)c2ccccc2)c1)c1ccccc1 (centres undefined) | > 100 µM | 

Tested on: 786-0 renal
Assay: inhibition of tumour cell growth, NCI panel, 48 h

Structure (SMILES) | TGI
Cc1ccc(NC(=O)c2ccc(OP(=O)(O)Nc3ccc(C)cc3)cc2)cc1 | > 100 µM
Cc1ccnc(NS(=O)(=O)c2ccc(N=[N+]=[N-])cc2)n1 | > 100 µM
Cc1ccccc1C(=N)c1ccccc1Cc1cccc2ccccc12 | 41 µM
CCOP(=O)(OCC)C(F)(F)c1ccc(CC(NC(=O)OC(C)(C)C)C(=O)O)cc1 (centres undefined) | > 10 µM
COc1ccc(-c2[nH]c3c4c(nc5c(c24)C(=O)CC(C)(C)C5)CC(C)(C)C3)cc1 | > 100 µM
O=C(C1OC1c1ccc(Br)cc1O)C12CC3CC(CC(C3)C1)C2 (centres undefined) | 32.4 µM
Cc1ccccc1OC(C)C(=O)NN1C(=O)CSC1c1ccccc1 (centres undefined) | > 100 µM
Cc1ccc(N(Cc2ccccc2)Cc2ccccc2)cc1 | > 100 µM
CC(C)=CCC[C@@H](C)c1c(O)c(O)c(C)c2nccnc12 | > 100 µM
O=c1[nH]c(=S)[nH]c2c1C(c1ccc([N+](=O)[O-])cc1)c1c([nH]c(=S)[nH]c1=O)O2 | > 100 µM
Cn1c(=O)c2c(nc3n2CC(C(=O)O)N3)n(C)c1=O (centres undefined) | > 100 µM
Cc1ccc(-c2cc(-c3ccco3)c(C#N)c(=S)n2C2OC(CO)C(O)C(O)C2O)cc1 (centres undefined) | > 100 µM
NC(N)=Nc1ccc(CC(N)NCC(=O)O)cc1 (centres undefined) | > 25 µM
COC(=O)C1=C(C(=O)OC)SC(=C2SCSC3=C2SC(C(=O)OC)=C(C(=O)OC)C32SC3=C(CCCC3)S2)S1 | > 100 µM
COc1nncc2[nH]c(-c3ccccc3)cc12 | > 100 µM
CCOC(=O)N1CCN(Cc2cc(=O)n3ccc(C)cc3n2)CC1 | > 100 µM
N#CC(NCc1cccc(CNC(C#N)c2ccccc2)c1)c1ccccc1 (centres undefined) | > 100 µM

Tested on: T-47D breast
Assay: inhibition of tumour cell growth, NCI panel, 48 h

Structure (SMILES) | TGI | GI50
Cc1ccc(NC(=O)c2ccc(OP(=O)(O)Nc3ccc(C)cc3)cc2)cc1 | > 100 µM | 
Cc1ccnc(NS(=O)(=O)c2ccc(N=[N+]=[N-])cc2)n1 | > 100 µM | 
Cc1ccccc1C(=N)c1ccccc1Cc1cccc2ccccc12 | 38.4 µM | 
CCOP(=O)(OCC)C(F)(F)c1ccc(CC(NC(=O)OC(C)(C)C)C(=O)O)cc1 (centres undefined) | > 10 µM | 
COc1ccc(-c2[nH]c3c4c(nc5c(c24)C(=O)CC(C)(C)C5)CC(C)(C)C3)cc1 | > 100 µM | 
O=C(C1OC1c1ccc(Br)cc1O)C12CC3CC(CC(C3)C1)C2 (centres undefined) | > 100 µM | 
Cc1ccccc1OC(C)C(=O)NN1C(=O)CSC1c1ccccc1 (centres undefined) | > 100 µM | 
Cc1ccc(N(Cc2ccccc2)Cc2ccccc2)cc1 | > 100 µM | 
CC(C)=CCC[C@@H](C)c1c(O)c(O)c(C)c2nccnc12 | > 79.8 µM | 
O=c1[nH]c(=S)[nH]c2c1C(c1ccc([N+](=O)[O-])cc1)c1c([nH]c(=S)[nH]c1=O)O2 | > 100 µM | 
Cn1c(=O)c2c(nc3n2CC(C(=O)O)N3)n(C)c1=O (centres undefined) | > 100 µM | 
Cc1ccc(-c2cc(-c3ccco3)c(C#N)c(=S)n2C2OC(CO)C(O)C(O)C2O)cc1 (centres undefined) | 84.9 µM and > 100 µM | 23.6 µM and 53 µM
NC(N)=Nc1ccc(CC(N)NCC(=O)O)cc1 (centres undefined) | > 25 µM | 
COC(=O)C1=C(C(=O)OC)SC(=C2SCSC3=C2SC(C(=O)OC)=C(C(=O)OC)C32SC3=C(CCCC3)S2)S1 | > 100 µM | 
COc1nncc2[nH]c(-c3ccccc3)cc12 | > 100 µM | 
CCOC(=O)N1CCN(Cc2cc(=O)n3ccc(C)cc3n2)CC1 | > 100 µM | 
N#CC(NCc1cccc(CNC(C#N)c2ccccc2)c1)c1ccccc1 (centres undefined) | > 100 µM | 
